Values of other authors in patent US20060165781A1, “Orally disintegrating tablets and process for obtaining them” (priority 2002, published 2006).

Settings: 5 g in 150 mL of water at 20° C.

- Time to dissolve in water: approximately 5 s
Structure (SMILES): OC[C@@H](O)[C@@H](O)[C@H](O)[C@H](O)CO [Spray-dried mannitol, mannitol]
